Test results published in article PMC12786078, “Identification of Novel JAK2 Inhibitors from Amino Derivatives of Epoxyalantolactone: In Silico and In Vitro Studies” (International Journal of Molecular Sciences, 2025).
Several values for one entry are separate records, joined by “and”; a condition that tells them apart may be missing. Equal entries are not always repeated. Where two headings read alike, the source gives them in different places.

Experiments:
[1] = test system: HeLa cells; assay: DCFH2-DA intracellular ROS assay; format: cell-based, human
Protocol: After 24 h, the cells were incubated with 100 µL of 10 µM DCFH2-DA (Sigma-Aldrich) diluted in Hank’s Balanced Salt Solution (HBSS) at 37 °C for 30 min in the dark. […] At the end of the treatment, cells were washed twice with cold phosphate-buffered saline (PBS), and 200 µL of 1% Triton X-100 in 0.3 M NaOH was added to lyse the cells.

[2] = test system: HeLa cells; assay: MTT cytotoxicity assay; settings: 48 h
Protocol: (§1) Human cervical adenocarcinoma (HeLa), hepatocellular carcinoma (HepG2) and mouse fibroblast (L929) cells were cultured in Dulbecco’s Modified Eagle’s Medium (DMEM) containing 10% fetal bovine serum (FBS), 100 U/mL penicillin G, and 100 μg/mL streptomycin. Human neuroblastoma (SH-SY5Y) cells were maintained in DMEM/F-12 medium with the same supplements. All cultures were incubated at 37 °C in a humidified atmosphere of 5% CO2.
(§2) Cells were seeded in 96-well plates at a density of 5 × 10^3 cells per well in 100 µL of complete DMEM and incubated overnight at 37 °C in a humidified incubator with 5% CO2. […] After 48 h of treatment, 100 µL of MTT solution (0.5 mg/mL in serum-free medium) was added to each well and incubated for an additional 3 h at 37 °C. The supernatant was then removed, and 100 µL of DMSO was added to dissolve the resulting formazan crystals. Absorbance was measured at 570 nm using an EnSight Multimode Microplate Reader (PerkinElmer, Waltham, MA, USA). IC50 values were calculated using nonlinear regression analysis in GraphPad Prism version 9.

[3] = test system: L929 fibroblasts; assay: MTT cytotoxicity assay; settings: read-out: IC50 L929
Protocol: as §1, §2

[4] = test system: HEK-293T cells; assay: MTT cytotoxicity assay; settings: read-out: IC50 HEK-293T
Protocol: as §2

[5] = test system: HepG2 cells; assay: MTT cytotoxicity assay; settings: read-out: IC50 HepG2
Protocol: as §1, §2

[6] = test system: SH-SY5Y neuroblastoma cells; assay: MTT cytotoxicity assay; settings: 48 h, read-out: IC50 SH-SY5Y
Protocol: as §1, §2

[7] = Annexin V-FITC/PI apoptosis detection by flow cytometry; settings: human, HeLa cells
Protocol: (§3) HeLa cells were seeded in 6-well plates at a density of 3 × 10^5 cells per well in 2 mL of complete DMEM and allowed to adhere overnight. […] Following treatment, cells were harvested by trypsinization and washed twice with 1 mL of cold phosphate-buffered saline (PBS) to remove non-adherent and dead cells. The cell pellets were resuspended in 100 µL of binding buffer and stained with 5 µL of Annexin V-FITC and 5 µL of propidium iodide (PI, 0.05 µg/mL). The staining was performed in the dark at room temperature for 15 min. Apoptotic cell death was quantified by flow cytometry, with early and late apoptotic populations distinguished based on Annexin V-FITC and PI fluorescence signals.

[8] = target: T1, JAK2 (Homo sapiens, UniProt O60674); assay: JAK2 kinase assay (ADP-Glo); format: biochemical; settings: 5 μM ATP, mean ± SEM, read-out: IC50, JAK2 kinase inhibition
T1 construct: purchased Sigma-Aldrich SRP0171
T1 sequence (O60674 808-1132 limits assumed): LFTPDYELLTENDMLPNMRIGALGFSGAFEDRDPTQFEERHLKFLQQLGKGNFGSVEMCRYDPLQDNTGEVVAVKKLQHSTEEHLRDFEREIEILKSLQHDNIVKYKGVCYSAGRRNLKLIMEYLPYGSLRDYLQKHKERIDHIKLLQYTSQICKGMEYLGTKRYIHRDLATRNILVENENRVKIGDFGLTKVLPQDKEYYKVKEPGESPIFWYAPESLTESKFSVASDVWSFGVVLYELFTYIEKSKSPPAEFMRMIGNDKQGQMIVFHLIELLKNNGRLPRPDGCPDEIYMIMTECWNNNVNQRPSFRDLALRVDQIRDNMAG
Protocol: For each reaction, 2.5 ng/μL of JAK2 enzyme (SRP0171, Sigma-Aldrich) was combined with 1 μM of the test compounds or known drugs, 5 μM ATP, and 2 ng/μL of poly(glu·tyr) substrate in a reaction buffer containing 40 mM Tris-HCl (pH 7.5), 20 mM MgCl2, and 0.1 mg/mL BSA. The reaction mixture was incubated at room temperature for 1 h. After incubation, 5 μL of the ADP-Glo reagent was added to each reaction, followed by an additional 40 min incubation. Next, 10 μL of the kinase detection reagent was added, and the reactions were incubated at room temperature for 30 min to convert ADP to ATP. Luminescence, reflecting ATP levels, was measured using an EnSight Multimode Microplate Reader. […] All assays were performed in triplicate, and the resulting data were presented as the relative inhibition (%) of inhibitors compared to the control without any inhibitor, as shown in Equation (1).(1) %Relative inhibition=[positive−negative−sample−negative]/(positive−negative)×100

[9] = test system: HeLa cells; assay: Annexin V-FITC/PI apoptosis detection by flow cytometry
Protocol: as §3

[10] = IC50 concentration of the compound
[11] = HeLa, 48 h, at IC50 (SL10 8 µM, SL35 6 µM, ruxolitinib 25 µM)

| SMILES | IC50 ([2]; read-out: IC50 HeLa, MTT) | IC50 [8] | IC50 ([3]; MTT, 48 h) | IC50 ([4]; MTT) | IC50 ([5]; MTT, 48 h) | IC50 ([6]; MTT) | other results |
| --- | --- | --- | --- | --- | --- | --- | --- |
| OO [H2O2, hydrogen peroxide, reference compound] |  |  |  |  |  |  | intracellular ROS level relative to control ([1]; 200 µM): approximately 1.7 fold |
| N#CC[C@H](C1CCCC1)n1cc(-c2ncnc3[nH]ccc23)cn1 [Ruxolitinib, reference compound] | 25 ± 1.25 µM |  |  |  |  |  | IC50 ([2]; Homo sapiens, HeLa, read-out: IC50 HeLa, MTT, 48 h): 25 ± 1.3 µM; IC50 ([3]; Mus musculus, L929, 48 h): 80.4 ± 2.33 µM; IC50 ([4]; Homo sapiens, HEK-293T): 89.7 ± 1.98 µM; IC50 ([5]; Homo sapiens, HepG2, 48 h): 34.6 ± 2.56 µM; IC50 ([6]; Homo sapiens, SH-SY5Y): 68.63 ± 0.19 µM; viability at 48 h, 25 µM [7]: 63.5 ± 2.17% |
| COc1ccc(CN2CC3C(=O)OC4CC5(C)CCCC(C)C5(O)C2C43)cc1OC (stereo not drawn) [SL8] | 88.2 µM | 0.0871 ± 0.0026 µM | 92.6 ± 2.87 µM | 90.7 ± 1.61 µM | 42.6 ± 2.14 µM | 59.6 ± 2.84 µM |  |
| CC1CCCC2(C)CC3OC(=O)C(CN4CCN(c5ccccc5)CC4)C3C3OC132 (stereo not drawn) [SL10] | 8.47 ± 0.74 µM | 0.0127 µM | 25.4 µM | 14.5 ± 0.74 µM | 19.7 µM | 23.1 µM | intracellular ROS level relative to control [1, 10]: approximately 1.4 fold; early apoptosis [9, 11]: 56.39 ± 2.21%; late apoptosis [9, 11]: 11.61 ± 0.99%; viable cells [9, 11]: 31.30 ± 2.21% |
| CC1CCCC2(C)CC3OC(=O)C(CN4CCN(c5ccc(F)cc5)CC4)C3C3OC132 (stereo not drawn) [SL14] | 13.2 µM | 0.0576 ± 0.0012 µM | 52.8 ± 1.92 µM | 50.9 ± 3.3 µM | 27.5 ± 0.73 µM | 35.8 ± 2.13 µM |  |
| Cc1cccc(N2CCN(CC3C(=O)OC4CC5(C)CCCC(C)C56OC6C43)CC2)c1 (stereo not drawn) [SL31] | 13.7 µM | 0.0893 ± 0.0015 µM | 62.8 ± 3.39 µM | 24.5 ± 1.12 µM | 19.62 ± 0.05 µM | 24.2 ± 1.69 µM |  |
| CC1CCCC2(C)CC3OC(=O)C4CN(CCc5c[nH]c6ccccc56)C(C34)C12O (stereo not drawn) [SL33] | 33.8 ± 2.8 µM | 0.0791 ± 0.0018 µM | 40.5 ± 2.22 µM | 29.3 ± 0.96 µM | 45.28 ± 0.41 µM | 58.6 ± 0.71 µM | IC50 ([2]; read-out: IC50 HeLa, MTT, listed as SLL33): 33.8 ± 2.78 µM |
| CC1CCCC2(C)CC3OC(=O)C(CN4CCN(c5ncccn5)CC4)C3C3OC132 (stereo not drawn) [SL35] | 6.07 ± 0.11 µM | 0.0217 µM and 0.0216 µM | 23.1 µM | 14.6 ± 1.05 µM | 13.3 µM | 19.2 µM and 19.3 µM | intracellular ROS level relative to control [1, 10]: around 2.0 fold; viable cells [9]: 66.19 ± 1.51%; early apoptosis [9, 11]: 26.30 ± 1.69%; late apoptosis [9, 11]: 5.20 ± 0.34% |
| O=C1O[C@H]([C@@H](O)CO)C(O)=C1O [Vitamin C, L-ascorbic acid, reference compound] |  |  |  |  |  |  | intracellular ROS level relative to control ([1]; 200 µM): about 0.8 fold |
